Columns and labels:
Assay type in all cases: cell-based, human
A-549 = assay: SRB colorimetric assay of cell growth and viability, A-549; settings: 48 hours exposure; for GI50: read-out: GI50 A-549; for CC50: read-out: LC50 A-549
SK-MEL-28 = assay: SRB colorimetric assay of cell growth and viability, SK-MEL-28; settings: 48 hours exposure; for CC50: read-out: LC50 MEL-28
HT-29 = assay: SRB colorimetric assay of cell growth and viability, HT-29; settings: 48 hours exposure; for GI50: read-out: GI50 HT-29; for CC50: read-out: LC50 HT-29
LoVo = assay: SRB colorimetric assay of cell growth and viability, LoVo; settings: 48 hours exposure; for CC50: read-out: LC50 LOVO
DU-145 = assay: SRB colorimetric assay of cell growth and viability, DU-145; settings: 48 hours exposure
LNCaP = assay: SRB colorimetric assay of cell growth and viability, LNCaP; settings: 48 hours exposure; for GI50: read-out: GI50 LN-caP; for CC50: read-out: LC50 LN-caP
From the text: The finality of this assay is to interrupt the growth of a “in vitro” tumor cell culture by means a continued exhibition of the cells to the sample to be testing.
This form of the assay employs 96 well cell culture microplates of 9 mm diameter (Faircloth, 1988; Mosmann, 1983). Most of the cell lines are obtained from American Type Culture Collection (ATCC) derived from different human cancer types.
Cells are maintained in RPMI 1640 10% FBS, supplemented with 0.1 g/l penicillin and 0.1 g/l streptomycin sulfate and then incubated at 37° C., 5% CO2 and 98% humidity. For the experiments, cells were harvested from subconfluent cultures using trypsin and resuspended in fresh medium before plating.
Cells are seeded in 96 well microtiter plates, at 5×10^3 cells per well in aliquots of 195 μL medium, and they are allowed to attach to the plate surface by growing in drug free medium for 18 hours. Afterward, samples are added in aliquots of 5 μL in a ranging from 10 to 10^−8 μg/mL, dissolved in DMSO:EtOH:PBS (0.5:0.5:99). After 48 hours exposure, the antitumor effect are measured by the SRB methodology: cells are fixed by adding 50 μL of cold 50% (wt/vol) trichloroacetic acid (TCA) and incubating for 60 minutes at 4° C. Plates are washed with deionized water and dried. One hundred μL of SRB solution (0.4% wt/vol in 1% acetic acid) is added to each microtiter well and incubated for 10 minutes at room temperature. Unbound SRB is removed by washing with 1% acetic acid. Plates are air dried and bound stain is solubilized with Tris buffer. Optical densities are read on a automated spectrophotometric plate reader at a single wavelength of 490 nm.
The values for mean+/− SD of data from triplicate wells are calculated. Some parameters for cellular responses can be calculated: GI=growth inhibition, TGI=total growth inhibition (cytostatic effect) and LC=cell killing (cytotoxic effect).

SK-BR-3 = assay: SRB colorimetric assay of cell growth and viability, SK-BR-3; settings: 48 hours exposure
IGROV-1 = assay: SRB colorimetric assay of cell growth and viability, IGROV-1; settings: 48 hours exposure
IGROV-ET = assay: SRB colorimetric assay of cell growth and viability, IGROV-ET; settings: 48 hours exposure; for CC50: read-out: LC50 IGROV-ET
HeLa = assay: SRB colorimetric assay of cell growth and viability, HeLa; settings: 48 hours exposure; for CC50: read-out: LC50 HELA
HeLa-APL = assay: SRB colorimetric assay of cell growth and viability, HeLa-APL; settings: 48 hours exposure; for CC50: read-out: LC50 HELA-APL
K-562 = assay: SRB colorimetric assay of cell growth and viability, K-562; settings: 48 hours exposure; for CC50: read-out: LC50 K-562
PANC-1 = assay: SRB colorimetric assay of cell growth and viability, PANC-1; settings: 48 hours exposure; for CC50: read-out: LC50 PANC-1

Structure (SMILES)	TGI A-549 (A-549) [Molar]	GI50 (A-549) [µM]	GI50 (SK-MEL-28) [µM]	TGI MEL-28 (SK-MEL-28) [Molar]	TGI HT-29 (HT-29) [Molar]	GI50 (HT-29) [µM]	GI50 (LoVo) [µM]	TGI LOVO (LoVo) [Molar]	GI50 (DU-145) [µM]	TGI DU-145 (DU-145) [Molar]	TGI LN-caP (LNCaP) [Molar]	GI50 (LNCaP) [µM]	GI50 (SK-BR-3) [µM]	TGI SK-BR-3 (SK-BR-3) [Molar]	GI50 (IGROV-1) [µM]	TGI IGROV (IGROV-1) [Molar]	GI50 (IGROV-ET) [µM]	TGI IGROV-ET (IGROV-ET) [Molar]	GI50 (HeLa) [µM]	TGI HELA (HeLa) [Molar]	further results
C/C=C1\NC(=O)[C@H](Cc2ccccc2)NC(=O)[C@@H](C(C)C)NC(=O)[C@@H]([C@@H](C)CC)NC(=O)[C@H](NC(=O)[C@H](NC(=O)[C@H](CCCN)NC(=O)[C@H]2CCCN2C(=O)[C@H](NC(=O)[C@@H](NC(=O)[C@@H](NC(=O)[C@H](NC(=O)c2ccc(C)cc2)C(C)C)[C@@H](C)O)C(C)C)C(C)C)[C@@H](C)CC)[C@@H](C)OC(=O)[C@H](C(C)C)NC1=O [Compound 19, [p-MeBza^14]-KF]	1.71E−06	0.775	1.16	2.24E−06	1.12E−06	0.314	0.12	2.35E−07	0.775	1.73E−06	2.55E−06	1.02	0.17	3.77E−07	0.343	1.37E−06	0.439	1.44E−06	0.849	1.95E−06	GI50 (HeLa-APL): 0.923 µM; TGI HELA-APL (HeLa-APL): 2.00E−06 Molar; GI50 (K-562): 0.762 µM; TGI K-562 (K-562): 2.01E−06 Molar; GI50 (PANC-1): 2.06 µM
C/C=C1\NC(=O)[C@H](Cc2ccccc2)NC(=O)[C@@H](C(C)C)NC(=O)[C@@H]([C@@H](C)CC)NC(=O)[C@H](NC(=O)[C@H](NC(=O)[C@H](CCCN)NC(=O)[C@H]2CCCN2C(=O)[C@H](NC(=O)[C@@H](NC(=O)[C@@H](NC(=O)[C@H](NC(=O)c2ccccc2)C(C)C)[C@@H](C)O)C(C)C)C(C)C)[C@@H](C)CC)[C@@H](C)OC(=O)[C@H](C(C)C)NC1=O [Compound 20, [Bza^14]-KF]	1.95E−06	0.952	1.2	2.26E−06	1.64E−06	0.694	0.128	3.03E−07	0.939	1.99E−06	2.87E−06	1.18	0.32	1.16E−06	0.714	1.73E−06	0.755	1.78E−06	1.11	2.30E−06	CC50 (A-549): 3.97 µM; CC50 (SK-MEL-28): 4.23 µM; CC50 (HT-29): 3.88 µM; CC50 (LoVo): 0.81 µM; LC50 (concentration causing 50% net cell kill) (DU-145): 4.25 µM; CC50 (LNCaP): 6.8 µM; LC50 (SK-BR-3): 3.38 µM; LC50 (concentration causing 50% net cell killing) (IGROV-1): 4.2 µM; CC50 (IGROV-ET): 4.2 µM; CC50 (HeLa): 4.76 µM; GI50 (HeLa-APL): 1.01 µM; TGI HELA-APL (HeLa-APL): 2.08E−06 Molar; CC50 (HeLa-APL): 4.27 µM; GI50 (K-562): 0.305 µM; TGI K-562 (K-562): 2.12E−06 Molar; CC50 (K-562): 6.8 µM; GI50 (PANC-1): 3.79 µM; TGI PANC-1 (PANC-1): 6.80E−06 Molar; CC50 (PANC-1): 6.8 µM
C/C=C1\NC(=O)[C@H](Cc2ccccc2)NC(=O)[C@@H](C(C)C)NC(=O)[C@@H]([C@@H](C)CC)NC(=O)[C@H](NC(=O)[C@H](NC(=O)[C@H](CCCN)NC(=O)[C@H]2CCCN2C(=O)[C@H](NC(=O)[C@@H](NC(=O)[C@@H](NC(=O)[C@H](NC(=O)c2ccc(C(F)(F)F)cc2)C(C)C)[C@@H](C)O)C(C)C)C(C)C)[C@@H](C)CC)[C@@H](C)OC(=O)[C@H](C(C)C)NC1=O [Compound 21, [p-CF3Bza^14]-KF]	4.06E−07	0.146	0.897	1.85E−06	2.59E−07	0.114	0.0917	1.92E−07	0.241	1.22E−06	1.30E−06	0.339	0.111	2.46E−07	0.177	7.22E−07	0.169	7.61E−07	0.319	1.28E−06	CC50 (A-549): 1.68 µM; CC50 (SK-MEL-28): 3.8 µM; CC50 (HT-29): 0.585 µM; CC50 (LoVo): 0.404 µM; LC50 (concentration causing 50% net cell kill) (DU-145): 3.28 µM; CC50 (LNCaP): 3.52 µM; LC50 (SK-BR-3): 0.543 µM; LC50 (concentration causing 50% net cell killing) (IGROV-1): 3.45 µM; CC50 (IGROV-ET): 2.83 µM; CC50 (HeLa): 3.91 µM; GI50 (HeLa-APL): 0.504 µM; TGI HELA-APL (HeLa-APL): 1.48E−06 Molar; CC50 (HeLa-APL): 3.67 µM; GI50 (K-562): 6.5 µM; TGI K-562 (K-562): 6.50E−06 Molar; CC50 (K-562): 6.5 µM; GI50 (PANC-1): 1.3 µM; TGI PANC-1 (PANC-1): 3.11E−06 Molar; CC50 (PANC-1): 6.5 µM
C/C=C1\NC(=O)[C@H](Cc2ccccc2)NC(=O)[C@@H](C(C)C)NC(=O)[C@@H]([C@@H](C)CC)NC(=O)[C@H](NC(=O)[C@H](NC(=O)[C@H](CCCN)NC(=O)[C@H]2CCCN2C(=O)[C@H](NC(=O)[C@@H](NC(=O)[C@@H](NC(=O)[C@H](NC(=O)Cc2cc(F)cc(F)c2)C(C)C)[C@@H](C)O)C(C)C)C(C)C)[C@@H](C)CC)[C@@H](C)OC(=O)[C@H](C(C)C)NC1=O [Compound 22, [3,5-dFPhAc^14]-KF]	2.16E−06	1.17	2.5	6.58E−06	1.94E−06	0.888	0.288	1.06E−06	1.43	6.58E−06	6.58E−06	1.64	0.464	1.45E−06	0.98	2.12E−06	1.07	2.32E−06	1.29	3.28E−06	CC50 (A-549): 3.99 µM; CC50 (SK-MEL-28): 6.58 µM; CC50 (HT-29): 4.25 µM; CC50 (LoVo): 3.11 µM; LC50 (concentration causing 50% net cell kill) (DU-145): 6.58 µM; CC50 (LNCaP): 6.58 µM; LC50 (SK-BR-3): 3.64 µM; LC50 (concentration causing 50% net cell killing) (IGROV-1): 4.57 µM; CC50 (IGROV-ET): 5.01 µM; CC50 (HeLa): 6.58 µM; GI50 (HeLa-APL): 1.96 µM; TGI HELA-APL (HeLa-APL): 6.58E−06 Molar; CC50 (HeLa-APL): 6.58 µM; GI50 (K-562): 6.58 µM; TGI K-562 (K-562): 6.58E−06 Molar; CC50 (K-562): 6.58 µM; GI50 (PANC-1): 5.45 µM; TGI PANC-1 (PANC-1): 6.58E−06 Molar; CC50 (PANC-1): 6.58 µM

From patent US20070117743A1, “New antitumoral compounds” (priority 2003, published 2007)
